Test system: dopamine reuptake; unilateral nigrostriatal lesioned rats
Assay: Ipsilateral circling behaviour of unilateral nigrostriatal (6-OHDA) lesioned rats
Type: in vivo, rat (CD)
Conditions: methamphetamine challenge 2 mg/kg intraperitoneal; selected rats
From the text: The two tracts of the nigrostriatal dopamine system are independent and are located on either side of the midline of the brain. When one tract is destroyed using the specific neurotoxin, 6-hydroxydopamine (6-OHDA), rats will display characteristic circling behaviour after injection of dopaminergic drugs. The direction of rotation, however, is dependent on the stimulus employed. Drugs which inhibit dopamine reuptake can only function on the unlesioned side of the brain and induce circling towards the lesion site (known as ipsilateral circling.)
Male CD rats (250-300 g: Charles River) were anaesthetised with `Equithesin` type anaesthetic (3.2 ml/kg i.p.) and secured in a stereotaxic frame (David Kopf Small Animal Stereotaxic Instrument DKI 900). After shaving the area, a saggital incision of 1.5-2 cm was made and skin flaps dissected from the skull. A small hole was made in the skull, using a No. 6 dental burr, to allow the tip of a 30 s.w.g. stainless steel cannula to be inserted to the left substantia nigra. This was located by using the following co-ordinates, using skull landmark bregma as the zero reference point; rostral-caudal -2.8; medial-lateral +2.0; dorsal-ventral -8.0 from the surface of the dura, all co-ordinates measured in millimetres. This system of co-ordinates is a modification of the de Groot system as described by Pellegrino et al (A stereotaxic atlas of the rat brain, 2nd Edition, Plenum Press 1979). 6-Hydroxydopamine HBr (2 μg/μl, as base: Sigma Chemical Co.) was injected into the left substantia nigra at 1 μl/min; a total of 8 μg was administered over a period of 4 minutes using an infusion pump (Braun `Perfusor` ED2). After removal of the cannula, the skin flaps were joined with a single everted suture and the animal allowed to recover.
After 21 days, the circling behaviour of the rats was examined. They were placed, individually, in circular plastic arenas (30 cm diameter×12 cm high) for 1 hour, with no access to food or water during this period. […] One `turn` consisted of rotation through 360° in either direction. As rats were always lesioned on the left side of the brain, anticlockwise turns were ipsilateral.
Control values were determined for all rats by observing their spontaneous circling behaviour in the arenas without prior dosing. The mean turns per minute was always less than 1.
The rats were challenged with an intraperitoneal dose of methamphetamine (2 mg/kg) and immediately placed in the arenas. In these experiments circling behaviour was monitored during two periods, 0-1 h and 4-5 h after dosing. Rats giving a mean of more than 5 ipsilateral turns per minute during the first hour in response to methamphetamine were used in subsequent tests. Following selection, the rats were used in groups of 5 or more rats to test the drug under investigation.

CN[C@@H](C)Cc1ccccc1 [methamphetamine, reference compound]
mean response of the group, ipsilateral turns per minute: more than 10 ipsilateral turns per minute

— patent US4871774A, “Medical treatment” (The Boots Company PLC, priority 1987, dated 1989)
